pIC50: −log10 of the molar value.
Legend:
MT4 [1] = assay: Antiviral activity against HIV1 HXB2 in MT4 cells; assay type: functional, cell-based; conditions: Homo sapiens
MT4 [2] = assay: Antiviral activity against HIV1 EP13 in MT4 cells; assay type: functional, cell-based; conditions: Homo sapiens
MT4 [3] = assay: Antiviral activity against HIV D545701 in MT4 cells; assay type: functional, cell-based; conditions: Homo sapiens
[4] = Clearance in rat at 1 mg/kg, iv; assay type: ADME, organism-based; parameters: dose 1 mg/kg, route intravenous; conditions: in vivo
[5] = Oral bioavailability in rat at 1 mg/kg; assay type: ADME, organism-based; conditions: in vivo
[6] = Half life in rat at 1 mg/kg; assay type: ADME, organism-based; parameters: dose 1 mg/kg; conditions: in vivo
[7] = Half life in dog at 1 mg/kg; assay type: ADME, organism-based, Canis lupus familiaris; parameters: dose 1 mg/kg; conditions: in vivo
[8] = Oral bioavailability in dog at 1 mg/kg; assay type: ADME, organism-based, Canis lupus familiaris; conditions: in vivo
[9] = Clearance in dog at 1 mg/kg, iv; assay type: ADME, organism-based, Canis lupus familiaris; parameters: dose 1 mg/kg, route intravenous; conditions: in vivo

CC(C)(C)NC(=O)[C@@H]1C[C@@H]2CCCC[C@@H]2CN1C[C@@H](O)[C@H](Cc1ccccc1)NC(=O)[C@H](CC(N)=O)NC(=O)c1ccc2ccccc2n1
pIC50 (MT4 [1]): 7.22 | pIC50 (MT4 [2]): 7.10 | pIC50 (MT4 [3]): 6.22

CC(C)CN(C[C@@H](O)[C@H](Cc1ccccc1)NC(=O)O[C@H]1CCOC1)S(=O)(=O)c1ccc(N)cc1
pIC50 (MT4 [3]): < 6.00

CC(C)CN(C[C@@H](O)[C@H](Cc1ccccc1)NC(=O)O[C@H]1CO[C@H]2OCC[C@H]21)S(=O)(=O)c1ccc(N)cc1
pIC50 (MT4 [1]): 8.41 | pIC50 (MT4 [2]): 8.17 | pIC50 (MT4 [3]): 7.49

COC(=O)NCc1ccc(Oc2ccc(C[C@H](NC(=O)O[C@H]3CO[C@H]4OCC[C@H]43)[C@H](O)CN(CC(C)C)S(=O)(=O)c3ccc4c(c3)OCO4)cc2)cc1
pIC50 (MT4 [1]): 8.89 | pIC50 (MT4 [2]): 8.66 | pIC50 (MT4 [3]): 8.17

CC(C)CN(C[C@@H](O)[C@H](Cc1ccc(OCc2ccc3ccccc3c2)cc1)NC(=O)O[C@H]1CO[C@H]2OCC[C@H]21)S(=O)(=O)c1ccc2c(c1)OCO2
pIC50 (MT4 [1]): 7.96 | pIC50 (MT4 [2]): 7.52 | pIC50 (MT4 [3]): 7.23

COc1cccc(Oc2ccc(C[C@H](NC(=O)O[C@H]3CO[C@H]4OCC[C@H]43)[C@H](O)CN(CC(C)C)S(=O)(=O)c3ccc4c(c3)OCO4)cc2)c1
pIC50 (MT4 [1]): 8.33 | pIC50 (MT4 [2]): 7.80 | pIC50 (MT4 [3]): 7.39

CC(C)CN(C[C@@H](O)[C@H](Cc1ccc(Oc2ccncn2)cc1)NC(=O)O[C@H]1CO[C@H]2OCC[C@H]21)S(=O)(=O)c1ccc2c(c1)OCO2
pIC50 (MT4 [1]): 8.70 | pIC50 (MT4 [2]): 8.55 | pIC50 (MT4 [3]): 7.96

CC(C)CN(C[C@@H](O)[C@H](Cc1ccc(Oc2cccnc2)cc1)NC(=O)O[C@H]1CO[C@H]2OCC[C@H]21)S(=O)(=O)c1ccc2c(c1)OCO2
pIC50 (MT4 [1]): 8.96 | pIC50 (MT4 [2]): 8.62 | pIC50 (MT4 [3]): 8.02

CC(=O)NCc1ccc(Oc2ccc(C[C@H](NC(=O)O[C@H]3CO[C@H]4OCC[C@H]43)[C@H](O)CN(CC(C)C)S(=O)(=O)c3ccc4c(c3)OCO4)cc2)cc1
pIC50 (MT4 [1]): 8.21 | pIC50 (MT4 [2]): 8.47 | pIC50 (MT4 [3]): 8.20

CC(C)CN(C[C@@H](O)[C@H](Cc1ccc(OCc2ncc[nH]2)cc1)NC(=O)O[C@H]1CO[C@H]2OCC[C@H]21)S(=O)(=O)c1ccc2c(c1)OCO2
pIC50 (MT4 [1]): 7.16 | pIC50 (MT4 [2]): 7.70 | pIC50 (MT4 [3]): 7.80

CC(C)CN(C[C@@H](O)[C@H](Cc1ccc(Oc2ccc(CN3CCOCC3)cc2)cc1)NC(=O)O[C@H]1CO[C@H]2OCC[C@H]21)S(=O)(=O)c1ccc2c(c1)OCO2
pIC50 (MT4 [1]): 8.92 | pIC50 (MT4 [2]): 8.54 | pIC50 (MT4 [3]): 7.89

CC(C)CN(C[C@@H](O)[C@H](Cc1ccc(OCCc2ccccc2)cc1)NC(=O)O[C@H]1CO[C@H]2OCC[C@H]21)S(=O)(=O)c1ccc2c(c1)OCO2
pIC50 (MT4 [1]): 8.43 | pIC50 (MT4 [2]): 8.06 | pIC50 (MT4 [3]): 7.60

CC(C)CN(C[C@@H](O)[C@H](Cc1ccc(OCCc2ccsc2)cc1)NC(=O)O[C@H]1CO[C@H]2OCC[C@H]21)S(=O)(=O)c1ccc2c(c1)OCO2
pIC50 (MT4 [1]): 8.02 | pIC50 (MT4 [2]): 7.77 | pIC50 (MT4 [3]): 7.36

CC(C)CN(C[C@@H](O)[C@H](Cc1ccc(OCc2nccs2)cc1)NC(=O)O[C@H]1CO[C@H]2OCC[C@H]21)S(=O)(=O)c1ccc2c(c1)OCO2
pIC50 (MT4 [1]): 9.05 | pIC50 (MT4 [2]): 8.82 | pIC50 (MT4 [3]): 8.29

CC(C)CN(C[C@@H](O)[C@H](Cc1ccc(Oc2ccc(CNS(C)(=O)=O)cc2)cc1)NC(=O)O[C@H]1CO[C@H]2OCC[C@H]21)S(=O)(=O)c1ccc2c(c1)OCO2
pIC50 (MT4 [1]): 8.14 | pIC50 (MT4 [2]): 8.28 | pIC50 (MT4 [3]): 7.96

CC(C)CN(C[C@@H](O)[C@H](Cc1ccc(OCc2ccccn2)cc1)NC(=O)O[C@H]1CO[C@H]2OCC[C@H]21)S(=O)(=O)c1ccc2c(c1)OCO2
pIC50 (MT4 [1]): 8.92 | clearance [4]: 20 mL/min/kg | pIC50 (MT4 [2]): 8.92 | bioavailability [5]: 21% | pIC50 (MT4 [3]): 8.35 | half-life [6]: 54.6 min

CC(C)CN(C[C@@H](O)[C@H](Cc1ccc(Oc2ccc(CN3CCCC3)cc2)cc1)NC(=O)O[C@H]1CO[C@H]2OCC[C@H]21)S(=O)(=O)c1ccc2c(c1)OCO2
pIC50 (MT4 [1]): 8.55 | pIC50 (MT4 [2]): 8.34 | pIC50 (MT4 [3]): 7.72

CC(C)CN(C[C@@H](O)[C@H](Cc1ccc(OCCc2cccs2)cc1)NC(=O)O[C@H]1CO[C@H]2OCC[C@H]21)S(=O)(=O)c1ccc2c(c1)OCO2
pIC50 (MT4 [1]): 8.64 | half-life [7]: 30 min | bioavailability [8]: 18% | clearance [4]: 27 mL/min/kg | clearance [9]: 22 mL/min/kg | pIC50 (MT4 [2]): 8.47 | bioavailability [5]: 15% | pIC50 (MT4 [3]): 7.96 | half-life [6]: 132 min

CC(C)CN(C[C@@H](O)[C@H](Cc1ccc(OCc2ccccc2)cc1)NC(=O)O[C@H]1CO[C@H]2OCC[C@H]21)S(=O)(=O)c1ccc2c(c1)OCO2
pIC50 (MT4 [1]): 8.51 | pIC50 (MT4 [2]): 8.23 | pIC50 (MT4 [3]): 8.02

CC(C)CN(C[C@@H](O)[C@H](Cc1ccc(OCc2ccc3ccccc3n2)cc1)NC(=O)O[C@H]1CO[C@H]2OCC[C@H]21)S(=O)(=O)c1ccc2c(c1)OCO2
pIC50 (MT4 [1]): 8.60 | pIC50 (MT4 [2]): 8.28 | pIC50 (MT4 [3]): 7.72

CC(C)CN(C[C@@H](O)[C@H](Cc1ccc(OCCn2cncn2)cc1)NC(=O)O[C@H]1CO[C@H]2OCC[C@H]21)S(=O)(=O)c1ccc2c(c1)OCO2
pIC50 (MT4 [1]): 7.68 | pIC50 (MT4 [2]): 8.08 | pIC50 (MT4 [3]): 7.92

CC(C)CN(C[C@@H](O)[C@H](Cc1ccc(OCc2cncs2)cc1)NC(=O)O[C@H]1CO[C@H]2OCC[C@H]21)S(=O)(=O)c1ccc2c(c1)OCO2
pIC50 (MT4 [1]): 8.72 | pIC50 (MT4 [2]): 8.60 | pIC50 (MT4 [3]): 8.19

CC(C)CN(C[C@@H](O)[C@H](Cc1ccc(Oc2ccc(F)cc2)cc1)NC(=O)O[C@H]1CO[C@H]2OCC[C@H]21)S(=O)(=O)c1ccc2c(c1)OCO2
pIC50 (MT4 [1]): 8.48 | pIC50 (MT4 [2]): 8.09 | pIC50 (MT4 [3]): 7.54

CC(C)CN(C[C@@H](O)[C@H](Cc1ccc(OCc2cccc(C#N)c2)cc1)NC(=O)O[C@H]1CO[C@H]2OCC[C@H]21)S(=O)(=O)c1ccc2c(c1)OCO2
pIC50 (MT4 [1]): 8.92 | pIC50 (MT4 [2]): 8.66 | pIC50 (MT4 [3]): 8.66

CC(C)CN(C[C@@H](O)[C@H](Cc1ccc(Oc2ccc(CO)cc2)cc1)NC(=O)O[C@H]1CO[C@H]2OCC[C@H]21)S(=O)(=O)c1ccc2c(c1)OCO2
pIC50 (MT4 [1]): 8.80 | pIC50 (MT4 [2]): 8.80 | pIC50 (MT4 [3]): 8.08

CC(C)CN(C[C@@H](O)[C@H](Cc1ccc(Oc2ccccc2)cc1)NC(=O)O[C@H]1CO[C@H]2OCC[C@H]21)S(=O)(=O)c1ccc2c(c1)OCO2
pIC50 (MT4 [1]): 8.12 | pIC50 (MT4 [2]): 7.68 | pIC50 (MT4 [3]): 7.21

CC(C)CN(C[C@@H](O)[C@H](Cc1ccc(Oc2cccc(F)c2)cc1)NC(=O)O[C@H]1CO[C@H]2OCC[C@H]21)S(=O)(=O)c1ccc2c(c1)OCO2
pIC50 (MT4 [1]): 8.24 | pIC50 (MT4 [2]): 7.77 | pIC50 (MT4 [3]): 7.32

COc1ccc(Oc2ccc(C[C@H](NC(=O)O[C@H]3CO[C@H]4OCC[C@H]43)[C@H](O)CN(CC(C)C)S(=O)(=O)c3ccc4c(c3)OCO4)cc2)cc1
pIC50 (MT4 [1]): 8.68 | pIC50 (MT4 [2]): 8.16 | pIC50 (MT4 [3]): 7.57

CC(C)CN(C[C@@H](O)[C@H](Cc1ccc(OCc2cscn2)cc1)NC(=O)O[C@H]1CO[C@H]2OCC[C@H]21)S(=O)(=O)c1ccc2c(c1)OCO2
pIC50 (MT4 [1]): 9.22 | pIC50 (MT4 [2]): 8.92 | pIC50 (MT4 [3]): 8.46

Cc1c(O)cccc1C(=O)N[C@@H](CSc1ccccc1)[C@H](O)CN1C[C@H]2CCCC[C@H]2C[C@H]1C(=O)NC(C)(C)C
pIC50 (MT4 [3]): < 6.00

COC(=O)N[C@H](C(=O)N[C@@H](Cc1ccccc1)[C@@H](O)CN(Cc1ccc(-c2ccccn2)cc1)NC(=O)[C@@H](NC(=O)OC)C(C)(C)C)C(C)(C)C [ATAZANAVIR]
pIC50 (MT4 [1]): 7.60 | pIC50 (MT4 [2]): 7.03 | pIC50 (MT4 [3]): 7.15

Cc1cccc(C)c1OCC(=O)N[C@@H](Cc1ccccc1)[C@@H](O)C[C@H](Cc1ccccc1)NC(=O)[C@H](C(C)C)N1CCCNC1=O [LOPINAVIR]
pIC50 (MT4 [1]): 7.40 | pIC50 (MT4 [2]): 6.40 | pIC50 (MT4 [3]): < 6.00

CC(C)c1nc(CN(C)C(=O)N[C@H](C(=O)N[C@@H](Cc2ccccc2)C[C@H](O)[C@H](Cc2ccccc2)NC(=O)OCc2cncs2)C(C)C)cs1 [RITONAVIR]
pIC50 (MT4 [1]): 6.57 | pIC50 (MT4 [2]): < 6.00 | pIC50 (MT4 [3]): < 6.00

Source: ChEMBL document CHEMBL1146125, “Ultra-potent P1 modified arylsulfonamide HIV protease inhibitors: the discovery of GW0385” (Bioorg Med Chem Lett, 2006)
